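Cells were grown in 96-well plates and exposed to each compound for 48 hours at five concentrations; endpoints were interpolated linearly between bracketing concentrations, or set to the highest concentration if not reached. At the GI50, growth is halved. TGI denotes the concentration required for complete inhibition of growth.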
Columns and labels:
Test in all cases: DTP human tumour cell line panel, 48 h
OVCAR-8 ovarian = system: OVCAR-8 ovarian
SF-539 CNS = system: SF-539 CNS
SW-620 colon = system: SW-620 colon
NCI/ADR-RES ovarian = system: NCI/ADR-RES ovarian
SK-MEL-28 melanoma = system: SK-MEL-28 melanoma
BT-549 breast = system: BT-549 breast
HCT-15 colon = system: HCT-15 colon
K-562 leukemia = system: K-562 leukemia
KM12 colon = system: KM12 colon
MDA-MB-231 breast = system: MDA-MB-231 breast

Compound | GI50 (OVCAR-8 ovarian) | TGI (OVCAR-8 ovarian) | GI50 (SF-539 CNS) | TGI (SF-539 CNS) | GI50 (SW-620 colon) | TGI (SW-620 colon) | GI50 (NCI/ADR-RES ovarian) | TGI (NCI/ADR-RES ovarian) | GI50 (SK-MEL-28 melanoma) | TGI (SK-MEL-28 melanoma) | GI50 (BT-549 breast) | TGI (BT-549 breast) | GI50 (HCT-15 colon) | TGI (HCT-15 colon) | GI50 (K-562 leukemia) | TGI (K-562 leukemia) | GI50 (KM12 colon) | TGI (KM12 colon) | GI50 (MDA-MB-231 breast) | TGI (MDA-MB-231 breast)
CCC(=C(c1ccc(OCCN2CCCCC2)cc1)c1ccc(OCCN2CCCCC2)cc1)c1ccc(Cl)cc1 | > 16.7 µM | > 16.7 µM | 2.55 µM | 5.02 µM | 4.1 µM | > 16.7 µM | > 16.7 µM | > 16.7 µM | 2.8 µM | 5.26 µM | > 16.7 µM | > 16.7 µM | 1.05 µM | > 16.7 µM | 0.4 µM | 1.07 µM | > 16.7 µM | > 16.7 µM | 5.35 µM | > 16.7 µM
O=C(N/N=C/c1ccc(Cl)cc1)c1ccc(NC(=O)c2ccccn2)cc1 | 35.7 µM | > 100 µM | 15.8 µM | 40.3 µM | 59 µM | > 100 µM | 16.2 µM | > 100 µM | 33 µM | > 100 µM | 25 µM | 99.6 µM | 42.1 µM | > 100 µM | > 100 µM | > 100 µM | 31 µM | > 100 µM | 27.3 µM | > 100 µM
CC1(C)N=C(N)N=C(N)N1c1ccc(OCCCNC(=O)Nc2ccc(S(=O)(=O)F)cc2)c(Cl)c1 | 0.697 µM | > 100 µM | 1.3 µM | > 67.4 µM | 0.0778 µM | > 100 µM | 98.5 µM | > 100 µM | 1.74 µM | > 100 µM | 11.5 µM | > 100 µM | 6.62 µM | > 100 µM | 0.0497 µM | > 100 µM | 0.504 µM | > 100 µM | 3.34 µM | > 100 µM
Cc1ccc(N)c(S)c1 |  | 30.8 µM |  | 31.3 µM |  | 38.7 µM |  | 56.8 µM |  | 47.6 µM |  | 36.4 µM |  | 30.4 µM |  | 65.1 µM |  | 36.7 µM |  | 31.3 µM
COc1ccc(C2=NN(C(N)=S)C(c3ccc4c(c3)OCO4)C2)cc1 (stereo not drawn) | 3.29 µM | 22.9 µM | 2.12 µM | 5.21 µM | 2.29 µM | 5.92 µM | 2.9 µM | 12.6 µM | 9.33 µM | > 100 µM | 2.89 µM | 20.5 µM | 2.88 µM | > 100 µM | 2.89 µM | > 100 µM | 2.27 µM | 5.19 µM | 4.71 µM | 65.7 µM
C[N+]1([O-])C2CCC1CC(OC(=O)C(CO)c1ccccc1)C2 (stereo not drawn) |  | > 100 µM |  | > 100 µM |  | > 100 µM |  | > 100 µM |  | > 100 µM |  | > 100 µM |  | > 100 µM |  | > 100 µM |  | > 100 µM |  | > 100 µM
COc1cc(/C=C/C(=O)c2cccc(-n3cc(-c4ccccc4)[nH]c3=O)c2)cc(OC)c1OC | 1.62 µM | 16.4 µM | 1.68 µM | 3.12 µM | 0.39 µM | 1.39 µM | 1.09 µM | 4.58 µM | 1.74 µM | 3.2 µM | 1.93 µM | 5.47 µM | 1.13 µM | 5.7 µM | 0.502 µM | > 100 µM | 1.37 µM | 2.66 µM | 2.17 µM | 6.18 µM
CC(C)=CC[C@@H]1CC2(CC=C(C)C)C(=O)C(OC3(C(=O)c4ccccc4)C(=O)C4(CC=C(C)C)C[C@@H](CC=C(C)C)C(C)(C)C(CC=C(C)C)(C4=O)C3=O)(C(=O)c3ccccc3)C(=O)C(CC=C(C)C)(C2=O)C1(C)C (stereo partly drawn) | 1.7 µM | 6.05 µM | 1.14 µM | 2.65 µM | 1.92 µM | 8.29 µM | 1.6 µM | 5.67 µM | 1.18 µM | 3.25 µM | 0.884 µM | 1.89 µM | 1.41 µM | 5.23 µM | 1.72 µM | 50 µM | 1.65 µM | 6.13 µM | 1.49 µM | 4.12 µM
CC(C)(C)CC(C)(C)c1ccc(OCCO)cc1 | 3.31 µg/mL | > 75 µg/mL | 8.77 µg/mL | 19.5 µg/mL | 7.73 µg/mL | 18.6 µg/mL | 2.61 µg/mL | 18.1 µg/mL | 11.4 µg/mL | 29.7 µg/mL | 2.49 µg/mL | 11.9 µg/mL | 7.74 µg/mL | 19.3 µg/mL | 0.887 µg/mL | > 75 µg/mL | 7.81 µg/mL | 18.6 µg/mL | 4.43 µg/mL | 15.7 µg/mL
O=C(NCc1cn(Cc2cccc(Oc3ccccc3)c2)nn1)c1cccnc1Nc1ccc(F)cc1 | 7.44 µM | > 100 µM | 15.1 µM | > 100 µM | 6.58 µM | > 100 µM | 14 µM | > 100 µM | 7.98 µM | > 100 µM | 45.6 µM | > 100 µM |  |  | > 100 µM | > 100 µM | 5.61 µM | > 100 µM | 14.5 µM | > 100 µM
Cc1c2cnccc2c(C)c2c1c1ccccc1n2CCOC(=O)c1ccccc1 |  | 26.9 µM |  | 20.9 µM |  | 53.7 µM |  | 33 µM |  | 47.2 µM |  | > 100 µM |  | 59.2 µM |  | 44.5 µM |  | > 98 µM |  | > 100 µM
Nc1ccc(/C=C/c2ccc3ncccc3c2)cc1 | > 100 µM | > 100 µM | > 100 µM | > 100 µM | > 100 µM | > 100 µM | > 100 µM | > 100 µM | > 100 µM | > 100 µM | 5.29 µM | > 100 µM | > 100 µM | > 100 µM | > 100 µM | > 100 µM | 49.1 µM | > 100 µM | 2.09 µM | > 100 µM
O=C1NN2CC(c3ccccc3)=NN=C2c2ccccc21 | 29.1 µM | 74 µM | 25.8 µM | 56.8 µM | 33 µM | > 100 µM | 17.5 µM | 42.7 µM | 28.1 µM | > 100 µM | 24.5 µM | 57 µM | 24.4 µM | 86.3 µM | 28.2 µM | > 100 µM | 31.9 µM | > 100 µM | 26.4 µM | 79.1 µM
C=C(CO)C(=O)OC1CC(=C)C2CC(O)C(C)C2C2OC(=O)C(=C)C12 (stereo not drawn) |  | 69.9 µM |  | 37.8 µM |  | 92.7 µM |  | > 100 µM |  | 57.6 µM |  | 32.3 µM |  | 35 µM |  | 82.2 µM |  | 33.6 µM |  | 36.2 µM
C=CC1(C)CCC2C(=CCC3C2(C)CC(O)C(O)C3(C)COC2OC(CO)C(O)C(O)C2O)C1 (stereo not drawn) |  | > 100 µM |  | > 100 µM |  | > 100 µM |  | > 100 µM |  | > 100 µM |  | > 100 µM |  | > 100 µM |  | > 100 µM |  | > 100 µM |  | > 100 µM

Source: PubChem BioAssay (NCI)
